According to article PMC10746543, “Design principles for cyclin K molecular glue degraders” (Nature Chemical Biology, 2023):
Several values for one entry are separate records, joined by “and”; a condition that tells them apart may be missing. Equal values may be shown once.

Columns and labels:
CDK12–cyclin K = CDK12–cyclin K (Homo sapiens, UniProt Q9NYV4); test: Lanthascreen kinase binding assay, CDK12; settings: for Lanthascreen raw signal, sheet CDK12: duplicates
Description: Lanthascreen experiments were performed using commercially available reagents (Thermo Fisher) and according to the manufacturer’s instructions.

[1] = system: cyclin K–eGFP degradation reporter; test: Cyclin K reporter stability analysis (dual-color cyclin K–eGFP reporter); assay type: cell-based, human; settings: source data sheet correlations; read-out: DC50
Method in brief: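 A 5 h treatment of HEK293T–Cas9 cells expressing the degradation reporter preceded flow cytometry; eGFP over mCherry, normalized to DMSO.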

HEK293T cells = test: Drug sensitivity assay (CellTiter-Glo viability) with or without MLN4924 pretreatment; assay type: cell-based, human; settings: Supplementary Table 2
Method in brief: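 HEK293T–Cas9 cells at 0.15 × 10^6 ml^−1 were treated with DMSO or 100 nM MLN4924 before plating. Test drugs were added 2 h later and exposure lasted 3 days. Viability was read by CellTiter-Glo luminescence and expressed relative to DMSO controls.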

Sequence of CDK12–cyclin K (Q9NYV4 713-1052): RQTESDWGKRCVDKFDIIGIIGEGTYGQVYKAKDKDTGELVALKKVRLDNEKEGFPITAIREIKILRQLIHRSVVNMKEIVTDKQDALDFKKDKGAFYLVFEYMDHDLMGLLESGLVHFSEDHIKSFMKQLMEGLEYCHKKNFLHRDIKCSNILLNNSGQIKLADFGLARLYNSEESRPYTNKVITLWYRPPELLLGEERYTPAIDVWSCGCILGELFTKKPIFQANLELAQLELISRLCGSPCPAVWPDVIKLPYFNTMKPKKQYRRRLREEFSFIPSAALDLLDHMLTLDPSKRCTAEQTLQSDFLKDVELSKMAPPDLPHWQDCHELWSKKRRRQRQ
Sequence of CDK12–cyclin K (O75909 1-267 partner limits assumed): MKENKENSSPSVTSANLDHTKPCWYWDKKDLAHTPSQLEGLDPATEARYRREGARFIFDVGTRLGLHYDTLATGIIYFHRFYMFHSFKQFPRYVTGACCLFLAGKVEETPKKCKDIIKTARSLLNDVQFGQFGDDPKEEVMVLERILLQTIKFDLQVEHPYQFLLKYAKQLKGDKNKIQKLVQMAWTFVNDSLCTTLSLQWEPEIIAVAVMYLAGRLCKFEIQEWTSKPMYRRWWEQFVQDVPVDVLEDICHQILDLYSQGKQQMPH

IC50 (CDK12–cyclin K; Supplementary Table 2, read-out: Lanthascreen IC50 [nM] CDK12): 6550 nM | Lanthascreen raw signal, sheet CDK12 (CDK12–cyclin K; compound 0.038147 nM, series r13): 0.01232 and 0.01243 | Lanthascreen raw signal, sheet CDK12 (CDK12–cyclin K; compound 0.038147 nM, series r49): 0.008613 and 0.007971 | Lanthascreen raw signal, sheet CDK12 (CDK12–cyclin K; compound 0.152588 nM, series r13): 0.01076 and 0.01116 | Lanthascreen raw signal, sheet CDK12 (CDK12–cyclin K; compound 0.152588 nM, series r49): 0.01012 and 0.009882 | Lanthascreen raw signal, sheet CDK12 (CDK12–cyclin K; compound 0.610352 nM, series r13): 0.0114 and 0.01052 | Lanthascreen raw signal, sheet CDK12 (CDK12–cyclin K; compound 0.610352 nM, series r49): 0.009497 and 0.01011 | Lanthascreen raw signal, sheet CDK12 (CDK12–cyclin K; compound 1.02544 nM, series r1): 0.009042 and 0.01099 | Lanthascreen raw signal, sheet CDK12 (CDK12–cyclin K; compound 3.15521 nM, series r1): 0.01068 and 0.009679 | Lanthascreen raw signal, sheet CDK12 (CDK12–cyclin K; compound 9.46563 nM, series r1): 0.009286 and 0.009664 | Lanthascreen raw signal, sheet CDK12 (CDK12–cyclin K; compound 9.76563 nM, series r13): 0.01092 and 0.01022 | Lanthascreen raw signal, sheet CDK12 (CDK12–cyclin K; compound 9.76563 nM, series r49): 0.01048 and 0.01041 | Lanthascreen raw signal, sheet CDK12 (CDK12–cyclin K; compound 31.5521 nM, series r1): 0.009025 and 0.009021 | Lanthascreen raw signal, sheet CDK12 (CDK12–cyclin K; compound 39.0625 nM, series r13): 0.01118 and 0.01016 | Lanthascreen raw signal, sheet CDK12 (CDK12–cyclin K; compound 39.0625 nM, series r49): 0.009518 and 0.009698 | Lanthascreen raw signal, sheet CDK12 (CDK12–cyclin K; compound 99.3891 nM, series r1): 0.008619 and 0.008828 | Lanthascreen raw signal, sheet CDK12 (CDK12–cyclin K; compound 156.25 nM, series r13): 0.01038 and 0.009956 | Lanthascreen raw signal, sheet CDK12 (CDK12–cyclin K; compound 156.25 nM, series r49): 0.009802 and 0.01107 | Lanthascreen raw signal, sheet CDK12 (CDK12–cyclin K; compound 315.521 nM, series r1): 0.009446 and 0.008194 | Lanthascreen raw signal, sheet CDK12 (CDK12–cyclin K; compound 625 nM, series r13): 0.01123 and 0.01103 | Lanthascreen raw signal, sheet CDK12 (CDK12–cyclin K; compound 625 nM, series r49): 0.008992 and 0.00907 | Lanthascreen raw signal, sheet CDK12 (CDK12–cyclin K; compound 2500 nM, series r13): 0.01034 and 0.009721 | Lanthascreen raw signal, sheet CDK12 (CDK12–cyclin K; compound 2500 nM, series r49): 0.009117 and 0.008384 | Lanthascreen raw signal, sheet CDK12 (CDK12–cyclin K; compound 3155.21 nM, series r1): 0.008559 and 0.007567 | Lanthascreen raw signal, sheet CDK12 (CDK12–cyclin K; compound 10000 nM, series r13): 0.008264 | Lanthascreen raw signal, sheet CDK12 (CDK12–cyclin K; compound 10000 nM, series r49): 0.007507 and 0.007835 | Lanthascreen raw signal, sheet CDK12 (CDK12–cyclin K; compound 10002 nM, series r1): 0.008529 and 0.007315 | DC50 [1]: 1.21 µM
Compound: Cc1ccc(C(=O)N2CSCC2C(=O)Nc2ncc(C)s2)o1 (stereo not drawn) [dCeMM4]
EC50 (HEK293T cells; Homo sapiens, HEK-293T, HEK293T viability, 72 h, compound alone, read-out: Cellular assays EC50): 2.63 µM | Toxicity rescue (HEK293T cells; MLN4924-mediated cytotoxicity rescue, 10 µM used where n.d.): 281%
